{
  "source": "patent US7109175B1",
  "about": "“Specific steady-state R-type CA2+ channel blockers and use thereof” (Universite de Sherbrooke, priority 2000, dated 2006)",
  "key": {"R-type Ca^2+ channel": {"system": "R-type Ca^2+ channel", "assay": "Ca2+ channel blockers tested on the R-type channel (data not shown)", "format": "cell-based"}, "[1]": {"system": "writhing response in mice", "assay": "Writhing response in mice (acetic acid, acetylcholine, kaolin)", "format": "in vivo", "conditions": "i.p., mice; for ID50 ACETYLCHOLINE: acetylcholine-induced writhes; for ID50 KAOLIN: kaolin-induced writhes", "from_the_text": "The antinociceptive actions of compound MV 8612 and MV 8608 were investigated in different models of nociception in mice as reported previously (Vaz et al., 1996, J. Pharmacol. Exp. Ther. 278:304–312)."}, "tail-flick": {"system": "tail-flick", "assay": "Tail-flick in mice", "format": "in vivo", "conditions": "i.p."}, "MG63 and FAOS-2": {"system": "MG63 and FAOS-2", "assay": "Spontaneous proliferation of human osteoblast cancer lines", "format": "cell-based", "conditions": "10^−8M"}, "L-type Ca^2+ channel": {"system": "L-type Ca^2+ channel", "assay": "Isradipine on L-type channel (data not shown)", "format": "cell-based", "conditions": "read-out: ED50, block of L-type Ca2+ channel"}, "anaesthetized rat": {"system": "anaesthetized rat", "assay": "Anaesthetized rat, blood pressure and PAF hypotension", "format": "in vivo", "conditions": "rat, results not shown", "from_the_text": "On the other hand, in vivo administered PAF, induced a marked hypotension in the anaesthetized rat and guinea pig."}, "[2]": {"system": "vasoconstriction, hypotension and airways hypereactivity induced by PAF, ET-1 and organ transplantation", "assay": "In vivo tests in rats, rabbits and guinea pigs (summary)", "conditions": "rabbits, guinea pigs"}, "[3]": {"system": "circulating ET-1, blood flow, hypertension"}, "[4]": {"system": "plasma ET-1, attacks of Raynaud's phenomenon", "conditions": "patients, La Civita et al. 1996; cited from earlier work"}},
  "note": "Entries after “also recorded” stand apart in the source; their conditions may differ.",
  "data": [
    {"smiles": "COc1ccc([C@@H]2Sc3cc(Cl)ccc3N(CCN(C)C)C(=O)[C@@H]2OC(C)=O)cc1", "note": "[Clentiazem]", "values": [
      {"measurement": "block of R-type Ca2+ channel", "setting": "R-type Ca^2+ channel", "value": "none were found to block the R-type Ca^2+"}
    ]},
    {"smiles": "COc1ccc(CCN(C)CCCC(C#N)(c2cc(OC)c(OC)c(OC)c2)C(C)C)cc1OC", "note": "(stereo not shown) [D600]", "values": [
      {"measurement": "block of R-type Ca2+ channel", "setting": "R-type Ca^2+ channel", "value": "none were found to block the R-type Ca^2+"}
    ]},
    {"smiles": "COc1cccc(CCN(C)CCCC(C#N)(c2ccc(OC)c(OC)c2)C(C)C)c1", "note": "(stereo not shown) [D888]", "values": [
      {"measurement": "block of R-type Ca2+ channel", "setting": "R-type Ca^2+ channel", "value": "none were found to block the R-type Ca^2+"}
    ]},
    {"smiles": "COc1ccc([C@@H]2Sc3ccccc3N(CCN(C)C)C(=O)[C@@H]2OC(C)=O)cc1", "note": "[Diltiazem]", "values": [
      {"measurement": "block of R-type Ca2+ channel", "setting": "R-type Ca^2+ channel", "value": "none were found to block the R-type Ca^2+"}
    ]},
    {"smiles": "COc1ccc2c(c1)c(CC(=O)O)c(C)n2C(=O)c1ccc(Cl)cc1", "note": "[INDOMETHACIN, indomethacin, reference compound]", "values": [
      {"measurement": "ID50 ACETIC ACID", "setting": "[1]; acetic acid-induced writhes", "value": "1.2 (0.9–1.4) μmol/kg"},
      {"measurement": "ID50 ACETYLCHOLINE", "setting": "[1]", "value": "0.8 (0.5–1.0) μmol/kg"},
      {"measurement": "ID50 KAOLIN", "setting": "[1]", "value": "1.6 (1.4–1.8) μmol/kg"}
    ]},
    {"smiles": "CN1CC[C@]23c4c5ccc(O)c4O[C@H]2[C@@H](O)C=C[C@H]3[C@H]1C5", "note": "[MORPHINE, morphine, reference compound]", "values": [
      {"measurement": "ID50 ACETYLCHOLINE", "setting": "[1]", "value": "1.4 (1.0–1.8) μmol/kg"},
      {"measurement": "ID50 KAOLIN", "setting": "[1]", "value": "1.4 (1.2–1.7) μmol/kg"},
      {"measurement": "ID50 TAIL-FLICK", "setting": "tail-flick", "value": "6.0(5.7–6.4) μmol/kg"}
    ]},
    {"smiles": "COc1ccc(CCN(C)CCCC(C#N)(c2ccc(OC)c(OC)c2)C(C)C)cc1OC", "note": "(stereo not shown) [Verapamil]", "values": [
      {"measurement": "block of R-type Ca2+ channel", "setting": "R-type Ca^2+ channel", "value": "none were found to block the R-type Ca^2+"}
    ]},
    {"smiles": "COC(=O)C1=C(C)NC(C)=C(C(=O)OC(C)C)C1c1cccc2nonc12", "note": "(stereo not shown) [isradipine]", "values": [
      {"measurement": "spontaneous cell proliferation", "setting": "MG63 and FAOS-2", "value": "reduced spontaneous cell proliferation"},
      {"measurement": "EC50", "setting": "L-type Ca^2+ channel", "value": "~1000", "unit": "nM"},
      {"measurement": "intrinsic hypotensive effect", "setting": "anaesthetized rat", "value": "marked intrinsic hypotensive properties"},
      {"measurement": "side effects in vivo", "setting": "[2]", "value": "exhibited significant side effects"},
      {"measurement": "hypertension and ET-1 plasma elevation associated with cyclosporin A (Sandimmune) treatment", "setting": "[3]; allograft transplant, listed as Lomir/Dynacirc", "value": "blocked hypertension and ET-1 plasma elevation; also recorded: blocks the elevated circulating endothelin level"},
      {"measurement": "increase of circulating ET-1 and decrease of blood flow", "setting": "[3]; organ transplants, rabbit, cyclosporin-A treated", "value": "restored ET-1 and blood flow levels"},
      {"measurement": "elevated plasma ET-1 level and frequency, severity of acute attacks of Raynaud's phenomenon", "setting": "[4]", "value": "significantly reduced"}
    ]},
    {"smiles": "COC(=O)C1=C(C)NC(C)=C(C(=O)OC)C1c1ccccc1[N+](=O)[O-]", "note": "[nifedipine]", "values": [
      {"measurement": "intrinsic hypotensive effect", "setting": "anaesthetized rat", "value": "marked intrinsic hypotensive properties"}
    ]}
  ]
}
